T1: ALK5 (TGF-βR1) (Homo sapiens, UniProt P36897)
T1 sequence (P36897 34-503): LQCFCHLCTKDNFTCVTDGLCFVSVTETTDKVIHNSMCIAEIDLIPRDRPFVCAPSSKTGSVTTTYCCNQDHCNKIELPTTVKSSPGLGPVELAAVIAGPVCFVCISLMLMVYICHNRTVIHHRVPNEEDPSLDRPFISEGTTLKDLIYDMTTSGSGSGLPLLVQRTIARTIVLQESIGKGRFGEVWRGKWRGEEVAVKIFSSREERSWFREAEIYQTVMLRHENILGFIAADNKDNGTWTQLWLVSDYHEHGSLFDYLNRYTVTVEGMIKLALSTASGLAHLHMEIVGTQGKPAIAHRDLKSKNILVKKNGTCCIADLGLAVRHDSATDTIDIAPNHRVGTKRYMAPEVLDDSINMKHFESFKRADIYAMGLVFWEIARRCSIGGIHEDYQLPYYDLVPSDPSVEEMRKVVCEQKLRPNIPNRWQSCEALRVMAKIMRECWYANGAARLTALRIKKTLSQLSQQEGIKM


Experiments:
[1] = biological target: T1, ALK5 (TGF-βR1); conditions: high concentrations; cited from earlier work
[2] = tested on: normal colon derived epithelium monolayers; test: Proinflammatory cytokine titration, barrier injury by TEER; type: cell-based, human; conditions: cCDM culture condition, 24 hours after cytokine addition
Excerpt: FIG. 6 illustrates inducing barrier injury to normal colon derived epithelium monolayers on 96 well transwell plates in expansion (CNM) and combination (cCDM) culture conditions by serial titration of proinflammatory cytokines. All proinflammatory cytokines were used at the final concentrations listed on the graph regardless of combination. (A)-(H) illustrate transepithelial […] (TEER) in CNM and cCDM culture conditions. Data are represented as mean±SD for 3 technical replicates. […] EC50 dose response curves were calculated by Non-linear regression log(inhibitor) versus response variable slope (four parameters).
As IFN-γ has major impact in inducing barrier damage via JAK-STAT signalling pathway, we titrated different combinations of three indicated proinflammatory cytokines to resolve TNF-α and IL-1α synergy in combination with IFN-γ. […] The lower sensitivity of organoid-derived epithelium monolayers cultured in CNM correlated with a lower expression of IFN-γ receptor (IFNGR1) compared to the cCDM culture condition.

Molecule | concentration at which it is thought to inhibit ALK5 [1] | EC50 calculated from EC50 dose response curves (TEER) [2]
C[S+]([O-])c1ccc(-c2nc(-c3ccc(F)cc3)c(-c3ccncc3)[nH]2)cc1 (centres unmarked) [SB-203580] | ≥ 10 µM | 
IFN-γ: proinflammatory cytokine, single treatment (protein, UniProt P01579 24-161, looked up) Interferon gamma: QDPYVKEAENLKKYFNAGHSDVADNGTLFLGILKNWKEESDRKIMQSQIVSFYFKLFKNFKDDQSIQKSVETIKEDMNVKFFNSNKKKRDDFEKLTNYSVTDLNVQRKAIHELIQVMAELSPAAKTGKRKRSQMLFRG |  | 3.71

Source: patent US20240240155A1, “Organoid-Derived Monolayers and Uses Thereof” (Hub Organoids IP B.V., priority 2021, published 2024)
